# Source: publication PMC11079024, “Identification of a family of species-selective complex I inhibitors as potential anthelmintics” (Nature Communications, 2024)
# Values joined by “and” are separate entries in the source; they are usually repeats but may differ in a detail not shown here. Equal values may be shown once. Read-outs that look alike come from different tables or passages of the source.
# How the values were obtained:
# [1] = target: C. elegans (N2) complex I (NADH:ubiquinone oxidoreductase) (Caenorhabditis elegans, UniProt P24887+Q93873+Q94360); test: biochemical; type: biochemical
# Chain of C. elegans (N2) complex I (NADH:ubiquinone oxidoreductase) (Q94360 17-199): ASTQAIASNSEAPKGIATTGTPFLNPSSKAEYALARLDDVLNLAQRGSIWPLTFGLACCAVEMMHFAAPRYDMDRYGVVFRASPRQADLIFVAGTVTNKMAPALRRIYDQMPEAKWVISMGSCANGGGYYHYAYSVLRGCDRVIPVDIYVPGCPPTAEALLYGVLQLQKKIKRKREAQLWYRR
# Chain of C. elegans (N2) complex I (NADH:ubiquinone oxidoreductase) (P24887 whole entry): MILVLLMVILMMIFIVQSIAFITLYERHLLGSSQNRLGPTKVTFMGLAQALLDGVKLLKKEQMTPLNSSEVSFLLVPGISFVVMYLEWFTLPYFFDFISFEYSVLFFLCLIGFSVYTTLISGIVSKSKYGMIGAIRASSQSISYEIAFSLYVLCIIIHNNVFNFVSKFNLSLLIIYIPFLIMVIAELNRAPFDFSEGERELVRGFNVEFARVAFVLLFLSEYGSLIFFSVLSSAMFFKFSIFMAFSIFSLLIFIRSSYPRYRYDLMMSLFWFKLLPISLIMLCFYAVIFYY
# Chain of C. elegans (N2) complex I (NADH:ubiquinone oxidoreductase) (Q93873 31-482): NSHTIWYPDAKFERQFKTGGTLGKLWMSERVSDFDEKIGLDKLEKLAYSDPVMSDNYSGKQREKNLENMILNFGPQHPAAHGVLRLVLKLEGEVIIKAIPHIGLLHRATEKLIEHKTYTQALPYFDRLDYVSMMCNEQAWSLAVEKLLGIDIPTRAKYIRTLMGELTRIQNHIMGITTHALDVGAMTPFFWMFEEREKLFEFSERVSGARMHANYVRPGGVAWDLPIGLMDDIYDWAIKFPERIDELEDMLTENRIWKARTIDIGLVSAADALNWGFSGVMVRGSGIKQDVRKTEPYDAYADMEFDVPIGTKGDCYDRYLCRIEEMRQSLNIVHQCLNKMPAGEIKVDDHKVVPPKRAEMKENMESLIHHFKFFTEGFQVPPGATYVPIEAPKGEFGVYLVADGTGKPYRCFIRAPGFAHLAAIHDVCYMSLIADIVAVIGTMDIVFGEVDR
# Procedure, shortened: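 Activity expressed as percent of solvent control. Complex I rate came from DCIP reduction at 600 nm (initial linear slope, 15 min) with NADH and decylubiquinone as substrates, plus antimycin A and KCN, in pH 7.5 KPi/BSA buffer. Isolated, thrice freeze-thawed mitochondria used at 0.2 mg/mL.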
# [2] = target: B. taurus (heart) complex I (Bos taurus, UniProt P03887+P17694+P42026); test: biochemical; type: biochemical
# Chain of B. taurus (heart) complex I (P03887 whole entry): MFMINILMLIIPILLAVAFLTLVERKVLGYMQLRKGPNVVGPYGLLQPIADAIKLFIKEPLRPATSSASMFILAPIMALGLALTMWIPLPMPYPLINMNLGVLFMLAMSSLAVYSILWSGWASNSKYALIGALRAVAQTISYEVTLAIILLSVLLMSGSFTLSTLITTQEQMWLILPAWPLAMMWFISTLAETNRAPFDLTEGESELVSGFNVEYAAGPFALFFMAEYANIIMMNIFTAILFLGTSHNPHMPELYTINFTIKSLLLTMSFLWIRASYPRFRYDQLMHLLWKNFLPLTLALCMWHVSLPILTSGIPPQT
# Chain of B. taurus (heart) complex I (P17694 34-463): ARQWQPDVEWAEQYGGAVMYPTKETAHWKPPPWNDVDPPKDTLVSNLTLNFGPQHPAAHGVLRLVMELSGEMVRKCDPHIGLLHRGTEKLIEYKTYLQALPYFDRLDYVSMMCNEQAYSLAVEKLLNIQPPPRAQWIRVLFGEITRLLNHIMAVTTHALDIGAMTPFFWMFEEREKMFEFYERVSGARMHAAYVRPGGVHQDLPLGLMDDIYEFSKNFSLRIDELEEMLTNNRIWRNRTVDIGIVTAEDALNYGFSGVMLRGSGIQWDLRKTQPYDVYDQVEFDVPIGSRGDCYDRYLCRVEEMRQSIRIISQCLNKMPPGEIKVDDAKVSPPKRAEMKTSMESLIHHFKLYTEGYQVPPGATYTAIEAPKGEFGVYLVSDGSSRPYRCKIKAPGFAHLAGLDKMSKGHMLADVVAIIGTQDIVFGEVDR
# Chain of B. taurus (heart) complex I (P42026 38-216): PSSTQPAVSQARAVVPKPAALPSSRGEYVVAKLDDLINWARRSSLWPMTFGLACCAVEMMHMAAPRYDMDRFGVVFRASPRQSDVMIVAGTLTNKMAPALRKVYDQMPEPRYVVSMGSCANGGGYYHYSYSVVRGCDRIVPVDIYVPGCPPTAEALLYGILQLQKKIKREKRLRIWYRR
# Procedure, shortened: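 Complex I activity followed as DCIP reduction (600 nm, 30 s reads, 15 min) with 80 μM NADH and 60 μM decylubiquinone in 25 mM KPi pH 7.5 containing 2 μM antimycin A and 2 mM KCN. Freeze-thawed mouse or bovine heart mitochondria at 0.2 mg/mL; initial-rate percent of solvent control, single-point 100 μM or dose-response.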
smiles,measurement,setting,value
COc1cc2c(cc1OC)C(/C=C/c1ccc(N(C)C)cc1)=NCC2 [NPD6303],"Complex I activity, dose-response data","[1]; C. elegans, dose 3 µM, individual replicates (Rep)",88.910 and 97.542
same,activity at 3 µM,"[1]; C. elegans, dose 3 µM, individual replicates (Rep), read-out: Complex I activity, dose-response data",82.5%
same,activity at 15 µM,"[1]; C. elegans, dose 15 µM, Mean of replicates, read-out: Complex I activity, dose-response data",47.6%
same,"Complex I activity, dose-response data","[1]; C. elegans, dose 15 µM, individual replicates (Rep)",33.770 and 49.973 and 56.558
same,activity at 37.5 µM,"[1]; C. elegans, dose 37.5 µM, Mean of replicates, read-out: Complex I activity, dose-response data",15%
same,"Complex I activity, dose-response data","[1]; C. elegans, dose 37.5 µM, individual replicates (Rep)",10.655 and 12.339 and 24.559
same,activity at 75 µM,"[1]; C. elegans, dose 75 µM, Mean of replicates, read-out: Complex I activity, dose-response data",9.53%
same,"Complex I activity, dose-response data","[1]; C. elegans, dose 75 µM, individual replicates (Rep)",11.807 and 4.396 and 17.534
same,IC50,"[1]; wild-type (N2) mitochondria, read-out: C. elegans Complex I IC50",11.9 µM and 11 µM
same,activity at 0.0001 µM,"[2]; B. taurus, dose 0.0001 µM, Mean of replicates, read-out: Complex I activity, dose-response data",91.7%
same,"Complex I activity, dose-response data","[2]; B. taurus, dose 0.0001 µM, individual replicates (Rep)",93.903 and 88.856 and 86.554
same,activity at 0.0001 µM,"[2]; B. taurus, dose 0.0001 µM, individual replicates (Rep), read-out: Complex I activity, dose-response data",97.5%
same,activity at 0.0005 µM,"[2]; B. taurus, dose 0.0005 µM, Mean of replicates, read-out: Complex I activity, dose-response data",92.3%
same,"Complex I activity, dose-response data","[2]; B. taurus, dose 0.0005 µM, individual replicates (Rep)",92.515 and 88.363 and 93.860
same,activity at 0.0005 µM,"[2]; B. taurus, dose 0.0005 µM, individual replicates (Rep), read-out: Complex I activity, dose-response data",94.5%
same,activity at 0.001 µM,"[2]; B. taurus, dose 0.001 µM, Mean of replicates, read-out: Complex I activity, dose-response data",92%
same,"Complex I activity, dose-response data","[2]; B. taurus, dose 0.001 µM, individual replicates (Rep)",95.392 and 88.341 and 90.155
same,activity at 0.001 µM,"[2]; B. taurus, dose 0.001 µM, individual replicates (Rep), read-out: Complex I activity, dose-response data",93.9%
same,activity at 0.0025 µM,"[2]; B. taurus, dose 0.0025 µM, Mean of replicates, read-out: Complex I activity, dose-response data",91.7%
same,"Complex I activity, dose-response data","[2]; B. taurus, dose 0.0025 µM, individual replicates (Rep)",92.736 and 89.606 and 94.534
same,activity at 0.0025 µM,"[2]; B. taurus, dose 0.0025 µM, individual replicates (Rep), read-out: Complex I activity, dose-response data",89.8%
same,activity at 0.005 µM,"[2]; B. taurus, dose 0.005 µM, Mean of replicates, read-out: Complex I activity, dose-response data",93.7%
same,"Complex I activity, dose-response data","[2]; B. taurus, dose 0.005 µM, individual replicates (Rep)",98.592 and 81.676 and 99.845
same,activity at 0.005 µM,"[2]; B. taurus, dose 0.005 µM, individual replicates (Rep), read-out: Complex I activity, dose-response data",94.8%
same,activity at 0.013 µM,"[2]; B. taurus, dose 0.013 µM, Mean of replicates, read-out: Complex I activity, dose-response data",94.7%
same,"Complex I activity, dose-response data","[2]; B. taurus, dose 0.013 µM, individual replicates (Rep)",95.041 and 103.924 and 78.354 and 101.425
same,activity at 0.025 µM,"[2]; B. taurus, dose 0.025 µM, Mean of replicates, read-out: Complex I activity, dose-response data",91.5%
same,"Complex I activity, dose-response data","[2]; B. taurus, dose 0.025 µM, individual replicates (Rep)",93.260 and 100.684 and 76.425 and 95.829
same,activity at 0.063 µM,"[2]; B. taurus, dose 0.063 µM, Mean of replicates, read-out: Complex I activity, dose-response data",90.4%
same,"Complex I activity, dose-response data","[2]; B. taurus, dose 0.063 µM, individual replicates (Rep)",90.670 and 95.493 and 75.718 and 99.663
same,activity at 0.125 µM,"[2]; B. taurus, dose 0.125 µM, Mean of replicates, read-out: Complex I activity, dose-response data",88.5%
same,"Complex I activity, dose-response data","[2]; B. taurus, dose 0.125 µM, individual replicates (Rep)",91.682 and 93.823 and 68.860 and 99.585
same,activity at 0.313 µM,"[2]; B. taurus, dose 0.313 µM, Mean of replicates, read-out: Complex I activity, dose-response data",88.2%
same,"Complex I activity, dose-response data","[2]; B. taurus, dose 0.313 µM, individual replicates (Rep)",96.036 and 78.933 and 86.373
same,activity at 0.313 µM,"[2]; B. taurus, dose 0.313 µM, individual replicates (Rep), read-out: Complex I activity, dose-response data",91.3%
same,activity at 0.625 µM,"[2]; B. taurus, dose 0.625 µM, Mean of replicates, read-out: Complex I activity, dose-response data",97.3%
same,"Complex I activity, dose-response data","[2]; B. taurus, dose 0.625 µM, individual replicates (Rep)",107.704 and 91.974 and 95.636
same,activity at 0.625 µM,"[2]; B. taurus, dose 0.625 µM, individual replicates (Rep), read-out: Complex I activity, dose-response data",93.9%
same,activity at 1.5 µM,"[2]; B. taurus, dose 1.5 µM, Mean of replicates, read-out: Complex I activity, dose-response data",93.1%
same,"Complex I activity, dose-response data","[2]; B. taurus, dose 1.5 µM, individual replicates (Rep)",104.204 and 86.663 and 89.601
same,activity at 1.5 µM,"[2]; B. taurus, dose 1.5 µM, individual replicates (Rep), read-out: Complex I activity, dose-response data",92.1%
same,activity at 3 µM,"[2]; B. taurus, dose 3 µM, Mean of replicates, read-out: Complex I activity, dose-response data",91.2%
same,"Complex I activity, dose-response data","[2]; B. taurus, dose 3 µM, individual replicates (Rep)",87.892 and 104.226 and 89.807 and 82.898
same,activity at 15 µM,"[2]; B. taurus, dose 15 µM, Mean of replicates, read-out: Complex I activity, dose-response data",76.4%
same,"Complex I activity, dose-response data","[2]; B. taurus, dose 15 µM, individual replicates (Rep)",86.661 and 69.921 and 66.695
same,activity at 15 µM,"[2]; B. taurus, dose 15 µM, individual replicates (Rep), read-out: Complex I activity, dose-response data",82.4%
same,activity at 37.5 µM,"[2]; B. taurus, dose 37.5 µM, Mean of replicates, read-out: Complex I activity, dose-response data",51.7%
same,"Complex I activity, dose-response data","[2]; B. taurus, dose 37.5 µM, individual replicates (Rep)",53.115 and 63.240 and 41.319 and 49.280
same,activity at 75 µM,"[2]; B. taurus, dose 75 µM, Mean of replicates, read-out: Complex I activity, dose-response data",29.9%
same,"Complex I activity, dose-response data","[2]; B. taurus, dose 75 µM, individual replicates (Rep)",35.395 and 24.387 and 27.438
same,activity at 75 µM,"[2]; B. taurus, dose 75 µM, individual replicates (Rep), read-out: Complex I activity, dose-response data",32.4%
same,IC50,"[2]; heart mitochondria, read-out: B. taurus Complex I IC50",34.3 µM
